The values below come from ChEMBL document CHEMBL3860051, “Phosphorothioate analogs of P1,P3-di(nucleosid-5'-yl) triphosphates: Synthesis, assignment of the absolute configuration at P-atoms and P-stereodependent recognition by Fhit hydrolase” (Bioorg Med Chem, 2016).

Data set [1] is described as follows: Retention time of compound by RP-HPLC analysis. The class given is physicochemical.
Data set [2] can be described thus: Drug level treated with 1-O-[(guanosin-5'-yl)thiophosphyl]-2-S-[(guanosin-5'-yl)dithiophosphyl]-ethane assessed as snake venom phosphodiesterase-mediated compound formation at 50 uM after 15 mins by RP-HPLC analysis. Format: ADME. Conditions: serpentes, 0.25 h.
A short description of data set [3]: Stability of the compound assessed as snake venom phosphodiesterase-mediated initial rate of hydrolysis per microgram of protein at 50 uM after 10 mins by RP-HPLC analysis. Format: ADME. To be noted: serpentes.
Data set [4] deals with snake venom phosphodiesterase. Put plainly: Stability of the compound assessed as snake venom phosphodiesterase-mediated compound hydrolysis at 50 uM after 10 mins by RP-HPLC analysis. Format: ADME. To be noted: serpentes, read-out: Drug degradation.
Data set [5] addresses T1, Bis(5'-adenosyl)-triphosphatase (Homo sapiens, UniProt P49789). Nature of the data set: Stability of the compound assessed as human Fhit expressed in Escherichia coli BL21-mediated compound hydrolysis rate per microgram protein at 50 uM after 5 to 120 mins by RP-HPLC analysis. The class given is ADME.
In data set [6] the test system is snake venom phosphodiesterase. Put plainly: Stability of the compound assessed as snake venom phosphodiesterase-mediated compound hydrolysis at 200 uM after 1 hr by RP-HPLC analysis. The class given is ADME. Conditions: serpentes, read-out: Drug degradation.
Data set [7] addresses T1, Bis(5'-adenosyl)-triphosphatase. Nature of the data set: Stability of compound assessed as human Fhit expressed in Escherichia coli BL21-mediated compound initial rate of hydrolysis per microgram of protein at 50 to 200 uM after 5 to 120 mins by RP-HPLC analysis. The class given is ADME.
Data set [8] can be described thus: Stability of the compound assessed as snake venom phosphodiesterase-mediated initial rate of hydrolysis per microgram of protein at 200 uM after 1 hr by RP-HPLC analysis. The class given is ADME. Conditions: serpentes.
The nature of data set [9]: Drug level treated with (S,S)-P1,P3-di(adenosin-5'-yl)P1,P3- bis-thio-triphosphate assessed as snake venom phosphodiesterase-mediated compound formation at 50 uM after 2 hrs by RP-HPLC analysis. Format: ADME. To be noted: serpentes.
The test system of data set [10] is snake venom phosphodiesterase. Nature of the data set: Stability of compound assessed as snake venom phosphodiesterase-mediated compound hydrolysis at 50 uM by RP-HPLC analysis. Format: ADME. Conditions: serpentes, read-out: Drug degradation.
Data set [11] is described as follows: Drug level treated with (R,S)-P1,P3-di(adenosin-5'-yl)P1,P3- bis-thio-triphosphate assessed as snake venom phosphodiesterase-mediated compound formation at 50 uM after 30 mins by RP-HPLC analysis. The class given is ADME. To be noted: serpentes, 0.5 h.
A short description of data set [12]: Stability of the compound assessed as snake venom phosphodiesterase-mediated initial rate of hydrolysis per microgram of protein at 50 uM by RP-HPLC analysis. The class given is ADME. Conditions: serpentes.
A short description of data set [13]: Stability of the compound assessed as snake venom phosphodiesterase-mediated initial rate of hydrolysis per microgram of protein at 50 uM after 2 hrs by RP-HPLC analysis. Conditions: serpentes. The class given is ADME.
Data set [14] deals with snake venom phosphodiesterase. Put plainly: Stability of the compound assessed as snake venom phosphodiesterase-mediated compound hydrolysis at 50 uM after 2 hrs by RP-HPLC analysis. Format: ADME. To be noted: serpentes, read-out: Drug degradation.
Data set [15] is described as follows: Drug level treated with (R,R)-P1,P3-di(adenosin-5'-yl)P1,P3-bis-thio-triphosphate assessed as snake venom phosphodiesterase-mediated compound formation at 50 uM after 10 mins by RP-HPLC analysis. The class given is ADME. Conditions: serpentes.
The nature of data set [16]: Stability of the compound assessed as snake venom phosphodiesterase-mediated initial rate of hydrolysis per microgram of protein at 50 uM after 30 mins by RP-HPLC analysis. The class given is ADME. Conditions: serpentes, 0.5 h.
Data set [17] has as its system snake venom phosphodiesterase. Nature of the data set: Stability of the compound assessed as snake venom phosphodiesterase-mediated compound hydrolysis at 50 uM after 30 mins by RP-HPLC analysis. The class given is ADME. Conditions: serpentes, read-out: Drug degradation.
Data set [18] is described as follows: Stability of the compound assessed as snake venom phosphodiesterase-mediated initial rate of hydrolysis per microgram of protein at 50 uM after 1 hr by RP-HPLC analysis. Format: ADME. Conditions: serpentes.
Data set [19] concerns snake venom phosphodiesterase. Nature of the data set: Stability of the compound assessed as snake venom phosphodiesterase-mediated compound hydrolysis at 50 uM after 1 hr by RP-HPLC analysis. Format: ADME. To be noted: serpentes, read-out: Drug degradation.
Data set [20] has as its system snake venom phosphodiesterase. Nature of the data set: (§1) Stability of the compound assessed as snake venom phosphodiesterase-mediated compound hydrolysis at 50 uM after 15 mins by RP-HPLC analysis. Format: ADME. Conditions: serpentes, snake venom phosphodiesterase; read-out: Drug degradation.
Data set [21] in a line: Stability of the compound assessed as snake venom phosphodiesterase-mediated initial rate of hydrolysis per microgram of protein at 50 uM after 15 mins by RP-HPLC analysis. The class given is ADME. Conditions: serpentes, 0.25 h.
Data set [22] can be described thus: as §1. To be noted: serpentes, 0.25 h, 50 µM. The class given is ADME.

T1 sequence (P49789 whole entry): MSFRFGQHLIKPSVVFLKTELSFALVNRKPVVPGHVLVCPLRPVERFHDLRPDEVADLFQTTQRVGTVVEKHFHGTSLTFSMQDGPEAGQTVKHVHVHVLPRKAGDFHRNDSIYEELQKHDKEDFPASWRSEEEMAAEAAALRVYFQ

`Nc1nc2c(ncn2[C@@H]2O[C@H](COP(O)(O)=S)[C@@H](O)[C@H]2O)c(=O)[nH]1` returned a Retention_time in data set [1] of 11.1 min. The Drug metabolism entry in data set [2] is reported as “Metabolite_Detected”.

On to `Nc1ncnc2c1ncn2[C@@H]1O[C@H](CO[P@@](=O)(S)OP(=O)(O)O[P@](=O)(S)OC[C@H]2O[C@@H](n3cnc4c(N)ncnc43)[C@H](O)[C@@H]2O)[C@@H](O)[C@H]1O`, for which the figures for the Drug degradation in data set [3] and in data set [5] were 0.1349 nmol/min and 5.8 pmol/min, respectively. For the same compound, the metabolised at 10 min, 50 µM in data set [4] was 88%.

`NC(=O)c1ncn([C@@H]2O[C@H](CO[P@](=O)(S)OP(=O)(O)O[P@@](=O)(S)OC[C@H]3O[C@@H](n4cnc(C(N)=O)n4)[C@H](O)[C@@H]3O)[C@@H](O)[C@H]2O)n1`: in [6], the metabolised at 1 h, 200 µM was found to be 10%. The Stability entry in data set [7] is listed as “Stable”. Further, in data set [8], the Drug degradation worked out at 0.0023 nmol/min.

In data set [1], `NC(=O)c1ncn([C@@H]2O[C@H](CO[P@@](=O)(S)OP(=O)(O)O)[C@@H](O)[C@H]2O)n1` returned a Retention_time of 11.8 min.

Turning to `Nc1ncnc2c1ncn2[C@@H]1O[C@H](CO[P@](=O)(S)OP(=O)(O)O)[C@@H](O)[C@H]1O`, the Drug metabolism entry in data set [9] and in data set [11] was “Metabolite_Detected” in each case. Besides, in data set [10], the metabolised at 50 µM was found to be 10%. Further, the Retention_time in [1] was determined as 16.8 min. The Drug degradation in data set [12] is 1.1 ×10⁻³ nmol/min.

Take `NC(=O)c1ncn([C@@H]2O[C@H](CO[P@](=O)(S)OP(=O)(O)O)[C@@H](O)[C@H]2O)n1`: the Retention_time in [1] is recorded as 10.9 min.

Regarding `Nc1ncnc2c1ncn2[C@@H]1O[C@H](CO[P@](=O)(S)OP(=O)(O)O[P@@](=O)(S)OC[C@H]2O[C@@H](n3cnc4c(N)ncnc43)[C@H](O)[C@@H]2O)[C@@H](O)[C@H]1O`, the Drug degradation in data set [13] was 0.0012 nmol/min; in data set [5], 5.7 pmol/min. Moreover, in data set [14], the metabolised at 2 h, 50 µM was found to be 52%.

Regarding `Nc1ncnc2c1ncn2[C@@H]1O[C@H](CO[P@@](=O)(S)OP(=O)(O)O)[C@@H](O)[C@H]1O`, the metabolised at 50 µM in [10] is 10%. In data set [1], this compound displayed a Retention_time of 18.9 min. Moreover, the Drug metabolism entry in data set [15] is given as “Metabolite_Detected”. In addition, the Drug degradation in data set [12] was determined as 2.9 ×10⁻³ nmol/min.

Regarding `Nc1ncnc2c1ncn2[C@@H]1O[C@H](CO[P@](=O)(S)OP(=O)(O)O[P@](=O)(S)OC[C@H]2O[C@@H](n3cnc4c(N)ncnc43)[C@H](O)[C@@H]2O)[C@@H](O)[C@H]1O`, the figures for the Drug degradation in [16] and in [5] were 0.0368 nmol/min and 27.8 pmol/min, respectively. For the same compound, the metabolised at 0.5 h, 50 µM in data set [17] stood at 88%.

`Nc1nc2c(ncn2[C@@H]2O[C@H](CO[P@@](=O)(S)OP(=O)(O)O)[C@@H](O)[C@H]2O)c(=O)[nH]1` had a Retention_time in [1] of 16.9 min.

Regarding `NC(=O)c1ncn([C@@H]2O[C@H](CO[P@@](=O)(S)OP(=O)(O)O[P@](=O)(S)OC[C@H]3O[C@@H](n4cnc(C(N)=O)n4)[C@H](O)[C@@H]3O)[C@@H](O)[C@H]2O)n1`, the metabolised at 1 h, 200 µM in data set [6] amounted to 80%. The Stability entry in [7] is reported as “Stable”. Also, in [8], the Drug degradation is on record as 0.0538 nmol/min.

Turning to `Nc1nc2c(ncn2[C@@H]2O[C@H](CO[P@@](=O)(S)OP(=O)(O)O[P@](=O)(S)OC[C@H]3O[C@@H](n4cnc5c(=O)[nH]c(N)nc54)[C@H](O)[C@@H]3O)[C@@H](O)[C@H]2O)c(=O)[nH]1`, the Drug degradation in data set [18] is listed as 0.1212 nmol/min; in [5] it was 0.7 pmol/min. Also, in [19], the metabolised at 1 h, 50 µM was determined as 95%.

For `Nc1nc2c(ncn2[C@@H]2O[C@H](CO[P@](=O)(S)OP(=O)(O)O)[C@@H](O)[C@H]2O)c(=O)[nH]1`, the Retention_time in data set [1] turned out to be 14.9 min.

For `NC(=O)c1ncn([C@@H]2O[C@H](COP(=O)(O)S)[C@@H](O)[C@H]2O)n1` (some centres undefined), the Retention_time in data set [1] came to 10.6 min.

Consider `NC(=O)c1ncn([C@@H]2O[C@H](CO[P@](=O)(S)OP(=O)(O)O[P@](=O)(S)OC[C@H]3O[C@@H](n4cnc(C(N)=O)n4)[C@H](O)[C@@H]3O)[C@@H](O)[C@H]2O)n1`, for which the metabolised at 1 h, 200 µM in data set [6] was 41%. In addition, the Stability entry in data set [7] was “Stable”. For the same compound, the Drug degradation in [8] is on record as 0.0253 nmol/min.

With `Nc1ncnc2c1ncn2[C@@H]1O[C@H](COP(=O)(O)OP(=O)(O)OP(=O)(O)OC[C@H]2O[C@@H](n3cnc4c(N)ncnc43)[C@H](O)[C@@H]2O)[C@@H](O)[C@H]1O`, the Drug degradation in [5] is reported as 9810 pmol/min.

In turn, `Nc1ncnc2c1ncn2[C@@H]1O[C@H](COP(O)(O)=S)[C@@H](O)[C@H]1O` returned a Retention_time in [1] of 13.8 min.

`Nc1nc2c(ncn2[C@@H]2O[C@H](COP(=O)(S)OP(=O)(O)OP(=O)(S)OC[C@H]3O[C@@H](n4cnc5c(=O)[nH]c(N)nc54)[C@H](O)[C@@H]3O)[C@@H](O)[C@H]2O)c(=O)[nH]1` (mixture of isomers): the Drug degradation in data set [18] turned out to be 0.0275 nmol/min; in [5], 5.9 pmol/min. In addition, in data set [19], the metabolised at 1 h, 50 µM was 50%.

In the case of `Nc1nc2c(ncn2[C@@H]2O[C@H](COP(=O)(S)OCCSP(=O)(S)OC[C@H]3O[C@@H](n4cnc5c(=O)[nH]c(N)nc54)[C@H](O)[C@@H]3O)[C@@H](O)[C@H]2O)c(=O)[nH]1` (stereo in doubt; 9A), in data set [20], the metabolised at 0.25 h, 50 µM stood at 70%. Besides, the values for the Drug degradation in [21] and in data set [5] were 0.6944 nmol/min and 3.9 pmol/min, respectively.

Regarding `Nc1nc2c(ncn2[C@@H]2O[C@H](COP(=O)(S)OCCSP(=O)(S)OC[C@H]3O[C@@H](n4cnc5c(=O)[nH]c(N)nc54)[C@H](O)[C@@H]3O)[C@@H](O)[C@H]2O)c(=O)[nH]1` (stereo in doubt; 9B), the Drug degradation in [22] is reported as 56%; in [21], 0.5539 nmol/min; in data set [5], 2 pmol/min.

Turning to `Nc1ncnc2c1ncn2[C@@H]1O[C@H](COP(=O)(O)OP(=O)(O)O)[C@@H](O)[C@H]1O` [ADENOSINE DIPHOSPHATE], the Stability entry in [12] is on record as “Stable”.
